Patent US4022903A, “α-Thienyl and α-substituted thienyl, phenyl and substituted phenyl cyclopropylomethanols useful as biodegradable insecticides and mollusicides” (Abbott Laboratories, priority 1975, dated 1977)

Tests used:
mites = assay: Leaf Disc Mite Assay; assay type: in vivo; settings: 48 hours, adult mites
Experimental: A stock solution of 50,000 ppm is prepared. The solution consists of 25 percent DMF, 75 percent IPA and approximately 4 percent Tween 20. The stock solution is diluted (1:20) to a concentration of 2500 ppm using as a diluent 70 percent acetone containing 0.1 percent Tween 20. The 2500 ppm solution is used for the initial screen.
Leaf discs 15 mm in diameter are cut from fresh Henderson Bush Lima Bean plants. Discs are then dropped in the appropriate dilution of the chemical being tested.
The leaf discs are allowed to dry and then placed on moistened filter paper in appropriately labeled petri dishes. Ten adult mites are placed on each disc. Nine discs are used for each compound. Percent mortality is determined after 48 hours.
When a compound is rated very active, 1:10 dilutions are made of the 2500 stock.

Adult snails = assay: Molluscicide activity, adult snails; assay type: in vivo; settings: 0/10-2/10 inactive, 3/10-7/10 partially active, 8/10-10/10 active
[1] = tested on: newly hatched snails of the strain B. glabrata; assay: Molluscicide activity, newly hatched snails; assay type: in vivo; settings: 24 hours, 26° C, 0/10-2/10 inactive, 3/10-7/10 partially active, 8/10-10/10 active
Mice oral LD 50 = settings: mouse, in vivo, orally

| Molecule | Mites, percent mortality (activity rating) (mites; 2500 ppm) | Molluscicide, mortality, Adult (Adult snails; 1 ppm) | Molluscicide, mortality, Adult (Adult snails; 10 ppm) | Molluscicide, mortality, New ([1]; 1 ppm) | Molluscicide, mortality, New ([1]; 10 ppm) | Mites, percent mortality (activity rating) (mites; 500 ppm) | LD50 (Mice oral LD 50) [mg/kg] |
| --- | --- | --- | --- | --- | --- | --- | --- |
| OC(c1ccc(C(F)(F)F)cc1)(c1cccs1)C1CC1 (stereo not drawn) [compound 2] | SIA (25-50 percent is slightly active (SIA)) | 0/10 | 6/10 | 4/10 | 10/10 | – | – |
| OC(c1ccc(Br)cc1)(c1ccc(Cl)s1)C1CC1 (stereo not drawn) [compound 8] | VA (80-100 percent mortality are rated very active (VA)) | 3/10 | 9/10 | 10/10 | 10/10 | – | – |
| OC(c1ccc(Cl)cc1)(c1ccc(Cl)s1)C1CC1 (stereo not drawn) [compound 4] | VA (80-100 percent mortality are rated very active (VA)) | 0/10 | 9/10 | 7/10 | 10/10 | A (50-80 percent mortality is rated active (A)) | – |
| Cc1ccc(C(O)(c2ccc(Cl)s2)C2CC2)cc1 (stereo not drawn) [compound 7] | – | 0/10 | 9/10 | 4/10 | 10/10 | – | > 1000 |
| OC(c1ccc(F)cc1)(c1ccc(Cl)s1)C1CC1 (stereo not drawn) [compound 9] | – | 0/10 | 9/10 | 5/10 | 10/10 | – | > 300 |
| OC(c1ccc(Cl)cc1)(c1cccs1)C1CC1 (stereo not drawn) [compound 1] | SIA (25-50 percent is slightly active (SIA)) | 0/10 | 6/10 | 6/10 | 10/10 | – | – |
| OC(c1ccc(C(F)(F)F)cc1)(c1ccc(Cl)s1)C1CC1 (stereo not drawn) [compound 5] | VA (80-100 percent mortality are rated very active (VA)) | 1/10 | 0/10 | 8/10 | 10/10 | A (50-80 percent mortality is rated active (A)) | > 1000 |
| α-(5-Chloro-2-Thienyl)4-Chlorophenylcyclopropylmethanol [No. 4] | – | 0/10 | 0/10 | 0/10 | 0/10 | – | – |
